Values joined by “and” are separate entries in the source; they are usually repeats but may differ in a detail not shown here. Equal values may be shown once. Toxic doses and inconclusive results are not listed.

The subject of this assay is P388 leukemia ip, CD2F1 mice, survival T/C. Description: NCI In Vivo Anticancer Drug Screen. Data for tumor model P388 Leukemia (intraperitoneal) in CD2F1 (CDF1) mice. To be noted: endpoint: median survival time, higher = longer survival. The gist of the method:
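Mice carrying the transplanted tumor received test compound or vehicle. Survival was recorded in each group, and the value is the treated-group measurement divided by that of the vehicle-treated control group.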

Where [1] appears, read: dose: 25.0 mg/kg/injection, schedule: Q01DX005 (ip), vehicle: saline with Tween-80.
[2] abbreviates: dose: 200.0 mg/kg/injection, schedule: Q01DX005 (ip), vehicle: saline with Tween-80.
[3] abbreviates: dose: 25.0 mg/kg/injection, schedule: Q01DX009 (ip), vehicle: saline with Tween-80.
The mark [4] stands for this setting: dose: 50.0 mg/kg/injection, schedule: Q01DX009 (ip), vehicle: saline with Tween-80.
Where [5] appears, read: dose: 200.0 mg/kg/injection, schedule: Q01DX009 (ip), vehicle: saline with Tween-80.
The mark [6] stands for this setting: dose: 50.0 mg/kg/injection, schedule: Q01DX009 (ip), vehicle: Klucel (hydroxypropylcellulose) (HPC).
Setting [7] is: dose: 100.0 mg/kg/injection, schedule: Q01DX009 (ip), vehicle: Klucel (hydroxypropylcellulose) (HPC).
[8] abbreviates: dose: 200.0 mg/kg/injection, schedule: Q01DX009 (ip), vehicle: Klucel (hydroxypropylcellulose) (HPC).
[9] abbreviates: dose: 50.0 mg/kg/injection, schedule: Q01DX005 (ip), vehicle: saline with Tween-80.
Setting [10] is: dose: 100.0 mg/kg/injection, schedule: Q01DX005 (ip), vehicle: saline with Tween-80.
Setting [11] is: dose: 60.0 mg/kg/injection, schedule: Q01DX005 (ip), vehicle: saline with Tween-80.
Setting [12] is: dose: 120.0 mg/kg/injection, schedule: Q01DX005 (ip), vehicle: saline with Tween-80.
Where [13] appears, read: dose: 100.0 mg/kg/injection, schedule: Q01DX009 (ip), vehicle: saline with Tween-80.
Where [14] appears, read: dose: 400.0 mg/kg/injection, schedule: Q01DX009 (ip), vehicle: saline with Tween-80.
Where [15] appears, read: dose: 240.0 mg/kg/injection, schedule: Q01DX005 (ip), vehicle: saline with Tween-80.

For the compound `COC(=O)Nc1cnc(C=O)c(C)c1-c1ccc(OC)c(OC)c1OCc1ccccc1`, the T/C (dose: 12.5 mg/kg/injection, schedule: Q01DX009 (ip), vehicle: other) is 111 % of control; the T/C (dose: 25.0 mg/kg/injection, schedule: Q01DX009 (ip), vehicle: other) is 119 % of control; the T/C (dose: 50.0 mg/kg/injection, schedule: Q01DX009 (ip), vehicle: other) is 110 % of control; the T/C (dose: 100.0 mg/kg/injection, schedule: Q01DX009 (ip), vehicle: other) is 103 % of control; the T/C (dose: 200.0 mg/kg/injection, schedule: Q01DX009 (ip), vehicle: other) was 117 % of control; the T/C (dose: 400.0 mg/kg/injection, schedule: Q01DX009 (ip), vehicle: other) is 90 % of control.
On to `CC(=O)NS(=O)(=O)c1ccc(N=NC2C(=O)N(C(=O)c3cccnc3)N=C2C)cc1` (stereo not drawn), for which the T/C (dose: 100.0 mg/kg/injection, schedule: Q04DX003 (ip), vehicle: saline with Tween-80) is 101 % of control; the T/C (dose: 200.0 mg/kg/injection, schedule: Q04DX003 (ip), vehicle: saline with Tween-80) is 104 % of control; the T/C (dose: 400.0 mg/kg/injection, schedule: Q04DX003 (ip), vehicle: saline with Tween-80) was 109 % of control.
On to `O=C(O)C1CCCN1` (stereo not drawn), for which the T/C is, setting by setting: (dose: 50.0 mg/kg/injection, schedule: Q01DX009 (ip), vehicle: saline) 98 % of control; (dose: 100.0 mg/kg/injection, schedule: Q01DX009 (ip), vehicle: saline) 100 % of control; (dose: 200.0 mg/kg/injection, schedule: Q01DX009 (ip), vehicle: saline) 100 % of control.
Consider `CCCCCC(=O)N1SC(NC(=O)OC)=Nc2ccccc21`, for which the T/C (dose: 50.0 mg/kg/injection, schedule: Q01DX005 (ip), vehicle: acetone) was 102 % of control; the T/C (dose: 100.0 mg/kg/injection, schedule: Q01DX005 (ip), vehicle: acetone) is 107 % of control; the T/C (dose: 200.0 mg/kg/injection, schedule: Q01DX005 (ip), vehicle: acetone) was 107 % of control.
As for `CCOc1ccc(C(C)c2cc3c(cc2OCC)OCO3)cc1` (stereo not drawn), the T/C under setting [1] was 120 % of control and the T/C under setting [2] is 157 % of control.
For `CC(C)C1OCN2CCCCC12` (stereo not drawn), the T/C by setting is: (dose: 50.0 mg/kg/injection, schedule: Q01DX005 (ip), vehicle: saline) 105 % of control; (dose: 100.0 mg/kg/injection, schedule: Q01DX005 (ip), vehicle: saline) 108 % of control; (dose: 200.0 mg/kg/injection, schedule: Q01DX005 (ip), vehicle: saline) 116 % of control.
`CC(=O)NC1C(S[As](C)C)OC(COC(C)=O)C(OC(C)=O)C1OC(C)=O` (stereo not drawn): the T/C is, setting by setting: (dose: 12.5 mg/kg/injection, schedule: Q01DX009 (ip), vehicle: saline with Tween-80) 102 % of control; under setting [3], 113 % of control; under setting [4], 116 % of control; under setting [5], 115 % of control.
For `CC1(C)C(c2ccccc2)CC(c2cccc(O)c2)=[N+]1[O-]` (stereo not drawn), the T/C was 97 % of control under setting [6], 97 % of control under setting [7] and 101 % of control under setting [8].
As for `CCCCCCCCCC(=O)Nc1ncc([N+](=O)[O-])s1`, the T/C under setting [6] was 94 % of control, the T/C under setting [7] is 91 % of control and the T/C under setting [8] was 94 % of control.
As for `C/C=C/C1CC2CC(CC(O)CC)CN2O1` (stereo not drawn), the T/C reads like this: under setting [1], 108 % of control; under setting [9], 100 % of control; under setting [10], 110 % of control.
With `Clc1cccc(N=Cc2ccc(C=Nc3cccc(Cl)c3Cl)cc2)c1Cl`, the T/C was 94 % of control under setting [6], 91 % of control under setting [7] and 90 % of control under setting [8].
On to `CSc1nc(SC)c2cnn(COCCO)c2n1`, for which the T/C was 92 % of control under setting [9], 92 % of control under setting [10] and 92 % of control under setting [2].
For the compound `OC(c1cc(-c2cccc(Cl)c2)nc2ccccc12)C1CCCCN1` (stereo not drawn), the T/C is 112 % of control (dose: 50.0 mg/kg/injection, schedule: Q01DX005 (ip), vehicle: Klucel (hydroxypropylcellulose) (HPC)) and 107 % of control (dose: 100.0 mg/kg/injection, schedule: Q01DX005 (ip), vehicle: Klucel (hydroxypropylcellulose) (HPC)).
Regarding `Clc1ccc(-c2n[se]c(-c3ccc(Cl)cc3)n2)cc1`, the T/C was 87 % of control under setting [3] and 89 % of control under setting [4].
Turning to `CCCCNc1cc(Nc2ccc(Br)cc2)nc(N)n1`, the T/C (dose: 6.25 mg/kg/injection, schedule: Q04DX003 (ip), vehicle: saline with Tween-80) was 106 % of control; the T/C (dose: 12.5 mg/kg/injection, schedule: Q04DX003 (ip), vehicle: saline with Tween-80) was 99 % of control; the T/C (dose: 25.0 mg/kg/injection, schedule: Q04DX003 (ip), vehicle: saline with Tween-80) is 106 % of control; the T/C (dose: 50.0 mg/kg/injection, schedule: Q04DX003 (ip), vehicle: saline with Tween-80) was 100 % of control.
Take `COc1ccc(OC)c2c(Cl)cc(N(C)C)nc12`: the T/C reads like this: under setting [11], 99 % of control; under setting [12], 97 % of control.
In the case of `COC(=O)c1cccc(COc2ccc([N+](=O)[O-])cc2Cl)c1`, the T/C under setting [13] was 100 % of control, the T/C under setting [5] is 100 % of control and the T/C under setting [14] is 110 % of control.
In the case of `S=C(NCc1ccccc1)N1CCC(CCCC2CCN(C(=S)NCc3ccccc3)CC2)CC1`, the T/C reads like this: (dose: 60.0 mg/kg/injection, schedule: Q01DX005 (ip), vehicle: Klucel (hydroxypropylcellulose) (HPC)) 92 % of control; (dose: 120.0 mg/kg/injection, schedule: Q01DX005 (ip), vehicle: Klucel (hydroxypropylcellulose) (HPC)) 91 % of control; (dose: 240.0 mg/kg/injection, schedule: Q01DX005 (ip), vehicle: Klucel (hydroxypropylcellulose) (HPC)) 88 % of control.
As to `CN1C(=O)c2c(ccc3c2OCO3)[C@@]2(C)C(=O)Cc3cc4c(cc3[C@H]12)OCO4`, the T/C (dose: 6.25 mg/kg/injection, schedule: Q01DX005 (ip), vehicle: Klucel (hydroxypropylcellulose) (HPC)) is 89 % of control and the T/C (dose: 12.5 mg/kg/injection, schedule: Q01DX005 (ip), vehicle: Klucel (hydroxypropylcellulose) (HPC)) is 88 % of control.
For `O=C1C(Cl)=C(Cl)C(=O)C(/C=C/N2CCOCC2)=C1Cl`, the T/C (dose: 50.0 mg/kg/injection, schedule: Q01DX001 (ip), vehicle: saline with Tween-80) is 102 % of control and the T/C (dose: 100.0 mg/kg/injection, schedule: Q01DX001 (ip), vehicle: saline with Tween-80) is 98 % of control.
As for `Cc1[nH]c(=O)[nH]c(=O)c1CO`, the T/C under setting [4] was 100 % of control, the T/C under setting [13] is 102 % of control, the T/C under setting [5] was 101 % of control and the T/C under setting [14] is 100 % of control.
With `Cc1csc2n/c(=N/[N+](=O)[O-])sn12`, the T/C reads like this: under setting [11], 92 % of control; under setting [12], 103 % of control; under setting [15], 120 % of control.
With `Cc1nc2c(cnn2C)cc1CCc1ccccc1`, the T/C runs as follows: under setting [11], 94 % of control; under setting [12], 95 % of control; under setting [15], 103 % of control.
With `CC(=O)NCC(C)C`, the T/C runs as follows: (dose: 100.0 mg/kg/injection, schedule: Q01DX001 (ip), vehicle: saline) 100 % of control; (dose: 200.0 mg/kg/injection, schedule: Q01DX001 (ip), vehicle: saline) 100 % of control; (dose: 400.0 mg/kg/injection, schedule: Q01DX001 (ip), vehicle: saline) 100 % of control.
Turning to `OC1CN(Cc2ccccc2)C[C@@H]1O` (stereo partly drawn), the T/C is 100 % of control (dose: 60.0 mg/kg/injection, schedule: Q01DX005 (ip), vehicle: saline) and 96 % of control (dose: 120.0 mg/kg/injection, schedule: Q01DX005 (ip), vehicle: saline).
With `COc1c(CCl)c2c(c(OC)c1OC)COC2=O`, the T/C runs as follows: under setting [4], 100 % of control; under setting [13], 90 % of control; under setting [5], 116 % of control.
On to `CCCCC(CC)CN1CN2CN(CC(CC)CCCC)CC2(C)C1` (stereo not drawn), for which the T/C is, setting by setting: (dose: 12.5 mg/kg/injection, schedule: Q01DX005 (ip), vehicle: saline with Tween-80) 100 % of control; under setting [1], 105 % of control; under setting [9], 104 % of control and 105 % of control.
Consider `O=C1CCC/C1=C1/SS/C(=C2/CCCC2=O)S1`, for which the T/C runs as follows: under setting [6], 101 % of control; under setting [7], 102 % of control; under setting [8], 98 % of control.

These data come from PubChem BioAssay AID330 (DTP/NCI, 2004).
